Experimental data taken from US7812036B2, “Androgens” (N.V. Organon, priority 2004, dated 2010).

target: T1, human androgen receptor (Homo sapiens, UniProt P10275); test: Androgenic activity (potency) in vitro bioassay, CHO-AR-pMMTV-LUC 1G12-A5-CA cells, luciferase reporter; format: cell-based; conditions: CHO cells stably transfected with human androgen receptor and MMTV-luciferase reporter; in the presence of 0.1 μmol/l onapristone; potencies expressed as percentage of DHT activity (maximal efficacy with 100 nmol/l DHT set as 100%)
T1 construct: expressed in transfected cells; host or cells: Chinese hamster ovary (CHO) cells, line CHO-AR-pMMTV-LUC 1G12-A5-CA
T1 sequence (P10275 1-920): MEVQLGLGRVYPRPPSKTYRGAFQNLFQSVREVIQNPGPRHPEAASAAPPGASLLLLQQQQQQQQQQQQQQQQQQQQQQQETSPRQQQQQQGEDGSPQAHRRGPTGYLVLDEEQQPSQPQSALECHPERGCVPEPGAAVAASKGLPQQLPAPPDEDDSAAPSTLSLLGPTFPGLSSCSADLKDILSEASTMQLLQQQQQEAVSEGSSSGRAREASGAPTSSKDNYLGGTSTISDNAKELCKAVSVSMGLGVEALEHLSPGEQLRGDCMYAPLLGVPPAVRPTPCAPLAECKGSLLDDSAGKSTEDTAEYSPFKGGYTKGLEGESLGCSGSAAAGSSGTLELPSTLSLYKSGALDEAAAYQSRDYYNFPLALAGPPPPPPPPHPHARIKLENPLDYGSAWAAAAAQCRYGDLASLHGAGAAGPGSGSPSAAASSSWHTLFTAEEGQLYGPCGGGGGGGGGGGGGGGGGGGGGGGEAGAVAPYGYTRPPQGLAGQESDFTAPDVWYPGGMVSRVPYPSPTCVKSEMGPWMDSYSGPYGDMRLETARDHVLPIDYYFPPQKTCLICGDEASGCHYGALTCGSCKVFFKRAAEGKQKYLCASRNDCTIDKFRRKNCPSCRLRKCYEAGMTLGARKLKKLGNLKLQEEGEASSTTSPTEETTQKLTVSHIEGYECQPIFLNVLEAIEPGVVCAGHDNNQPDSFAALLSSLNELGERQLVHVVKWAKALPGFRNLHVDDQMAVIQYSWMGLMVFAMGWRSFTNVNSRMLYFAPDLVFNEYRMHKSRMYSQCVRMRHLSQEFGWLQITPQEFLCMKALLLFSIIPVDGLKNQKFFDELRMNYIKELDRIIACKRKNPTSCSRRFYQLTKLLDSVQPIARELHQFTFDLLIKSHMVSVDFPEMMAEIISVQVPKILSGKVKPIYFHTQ
Protocol: The androgenic activity (potency) of the compounds of the invention was determined in an in vitro bioassay of Chinese hamster ovary (CHO) cells stably transfected with the human androgen receptor expression plasmid and a reporter plasmid in which the MMTV promoter is linked to the luciferase reporter gene. The cell line CHO-AR-pMMTV-LUC 1G12-A5-CA is described in Schoonen et al. (J. Steroid Biochem. Molec. Biol. 2002; 74: 213-222). The androgen receptor activity of compounds was determined in the presence of 0.1 μmol/l onapristone. The maximal efficacy in the presence of 100 nmol/1 DHT was set as 100%. The potencies are expressed as percentage of DHT activity.

Going from `CNc1ccc2c(Sc3ccccc3[N+](=O)[O-])cn(Cc3cccc(C#N)c3)c2c1` [Example 5r, 3-[6-Methylamino-3-(2-nitro-phenylsulfanyl)-1-indol-1-ylmethyl]-benzonitrile] to `CNc1ccc2c(Sc3ccccc3[N+](=O)[O-])cn(Cc3cc(C#N)cc(C#N)c3)c2c1` [Example 5s, 5-[6-Methylamino-3-(2-nitro-phenylsulfanyl)-indol-1-ylmethyl]-isophthalonitrile], the “Potency (%)” value falls from 11.4% to 5.9%.

Compared with `CNc1ccc2c(Sc3ccccn3)cn(Cc3cc(F)cc(F)c3)c2c1` [Example 11, [1-(3,5-Difluoro-benzyl)-3-(pyridin-2-ylsulfanyl)-1H-indol-6-yl]-methyl-amine], `CNc1ccc2c(Sc3ccccc3[N+](=O)[O-])cn(Cc3cc(F)cc(F)c3)c2c1` [Example 1] is higher in “Potency (%)” value: 6.6% for the first, 15.0% for the second.

Going from `N#CCNc1ccc2c(Sc3ccccc3[N+](=O)[O-])cn(Cc3ccccn3)c2c1` [Example 21d, [3-(2-Nitro-phenylsulfanyl)-1-pyridin-2-ylmethyl-1H-indol-6-ylamino]-acetonitrile] to `CN(C)c1ccc2c(Sc3ccccc3[N+](=O)[O-])cn(Cc3ccccn3)c2c1` [Example 19c, Dimethyl-[3-(2-nitro-phenylsulfanyl)-1-pyridin-2-ylmethyl-1H-indol-6-yl]-amine], the “Potency (%)” value falls from 6.7% to 1.2%.

Going from `CNc1ccc2c(Sc3ccccc3[N+](=O)[O-])cn(Cc3cocn3)c2c1` [Example 5j, Methyl-[3-(2-nitro-phenylsulfanyl)-1-oxazol-4-ylmethyl-1H-indol-6-yl]-amine] to `CNc1ccc2c(Sc3ccccc3[N+](=O)[O-])cn(Cc3ncccn3)c2c1` [Example 5f, Methyl-[3-(2-nitro-phenylsulfanyl)-1-pyrimidin-2-ylmethyl-1H-indol-6-yl]-amine], the “Potency (%)” value falls from 14.8% to 1.8%.

Going from `N#CCNc1ccc2c(Sc3ccccc3[N+](=O)[O-])cn(Cc3cc(F)cc(F)c3)c2c1` [Example 20, [1-(3,5-Difluoro-benzyl)-3-(2-nitro-phenylsulfanyl)-1H-indol-6-ylamino]-acetonitrile] to `C#CCNc1ccc2c(Sc3ccccc3[N+](=O)[O-])cn(Cc3cc(F)cc(F)c3)c2c1` [Example 22b, [1-(3,5-Difluoro-benzyl)-3-(2-nitro-phenylsulfanyl)-1H-indol-6-yl]-prop-2-ynyl-amine], the “Potency (%)” value falls from 40.2% to 27.1%.

First: CNc1ccc2c(Sc3ccccc3[N+](=O)[O-])cn(Cc3cccnc3)c2c1 [Example 3, Methyl-[3-(2-nitro-phenylsulfanyl)-1-pyridine-3-ylmethyl-1H-indol-6-yl]-amine]
Second: CNc1ccc2c(Sc3ccccc3[N+](=O)[O-])cn(Cc3ccncc3)c2c1 [Example 5e, Methyl-[3-(2-nitro-phenylsulfanyl)-1-pyridin-4-ylmethyl-1H-indol-6-yl]-amine]
The “Potency (%)” value of the first is lower: 13.4% for the first, 35.1% for the second.

First: COCCNc1ccc2c(Sc3ccccc3C#N)cn(Cc3cc(F)cc(F)c3)c2c1 [Example 21i]
Second: COCCNc1ccc2c(Sc3ccccc3[N+](=O)[O-])cn(Cc3cc(F)cc(F)c3)c2c1 [Example 21c]
The “Potency (%)” value of the first is lower: 6.0% for the first, 11.4% for the second.

Compared with `C=C(C)CNc1ccc2c(Sc3ccccc3[N+](=O)[O-])cn(Cc3cc(F)cc(F)c3)c2c1` [Example 22c], `CCCNc1ccc2c(Sc3ccccc3[N+](=O)[O-])cn(Cc3cc(F)cc(F)c3)c2c1` [Example 22a, [1-(3,5-Difluoro-benzyl)-3-(2-nitro-phenylsulfanyl)-1H-indol-6-yl]-propyl-amine] is higher in “Potency (%)” value: 1.2% for the first, 2.4% for the second.

In the case of `O=[N+]([O-])c1ccccc1Sc1cn(Cc2cc(F)cc(F)c2)c2cc(NCCO)ccc12` [Example 21b, 2-[1-(3,5-Difluoro-benzyl)-3-(2-nitro-phenylsulfanyl)-1H-indol-6-ylamino]-ethanol], the “Potency (%)” value is reported as 7.9%.
